“And” between values parts separate entries of the source, which are not always exact repeats. Identical values can stand only once. Like-named read-outs stand apart in the source and are kept apart here.
What was measured:
S. aureus DSMZ 20231 = experiment: Syto9 microtiter plate assay: adhesion of bacteria to coated polyester fabric samples; assay type: cell-based, Staphylococcus aureus; conditions: for Reduction in adhered bacteria [%]: S. aureus, polyester; for Reduction in adhered bacteria [%] S. aureus: polyester fabric, application concentration 0.1 wt %, commercial product applied directly by padding, relative to uncoated fabric
Protocol: (§1) Circular fabric samples with a diameter of 0.6 cm were punched from coated and uncoated cotton and polyester fabrics. The fabric samples were fixed to a microtiter plate. The fabric samples were washed with acetone and sterilized with UV light for 60 minutes.
(§2) The strains were coated fresh from glycerol bacterial cultures onto tryptic soy agar (TSA). Incubation took place overnight at 33° C. The nutrient medium prepared was a tryptic soy broth (TSB), with 30% of the amount recommended by the manufacturer, supplemented with 0.25% of glucose. […] The nutrient medium was inoculated with the bacterial cultures and after inoculation was cultivated overnight at 37° C. and 160 rpm.
(§3) The resulting overnight cultures were centrifuged at 8500 g for 15 minutes and washed with 50 ml of isotonic saline solution (0.9 wt %). Bacterial suspensions in isotonic saline solutions were prepared. The optical density of the various bacterial suspensions was determined at 595 nm and adjusted to a level of about 1.2.
(§4) 50 μl of the final microorganism suspension in isotonic saline solution (0.9 wt %) prepared as described under 2.2 were added to the coated and uncoated fabric samples fixed on the microtiter plate (see 2.1). The microtiter plates were closed and sealed off with Parafilm. The microtiter plates were placed in an antievaporation box and incubated at 33° C. for 2 h and at 40 rpm. The expected colony-forming unit count (CFU) of the inoculum at the start was 10^6-10^7 CFU/ml.
(§5) After the biofilm had formed, the planctonic cells were removed and used as a sample for determining the optical density at 595 nm. For this purpose, the samples were made up to a volume of 150 μl, and 100 μl were withdrawn for the optical density determination in a photometer. The optical density of the corresponding control solution with sterile isotonic saline solution was subtracted from the optical densities found. Through the determination of the planctonic cells after the formation of biofilm, the amount of bacteria available for adhesion was monitored.
(§6) The fabric samples and the resulting biofilm were washed three times with 200 to 300 μl of isotonic saline solution.
(§7) The fabric samples obtained under 2.4 (after formation of biofilm) were placed together with 100 μl of isotonic saline solution into wells of a 96-well microtiter plate.
(§8) Investigations into the removal of the adhered microorganisms from the fabric surfaces were carried out with vortexing, ultrasound, with enzymatic treatment, or with combinations thereof. Treatment in the vortex amounted to 5 minutes and was performed horizontally. The ultrasound treatment was carried out in an ultrasound bath for 5 minutes. For the enzymatic removal, the fabric samples were treated with enzymes, such as trypsin or a mixture of different enzymes, for example, during incubation at 37° C. for 1 hour.
(§9) Following removal of the adhered bacteria, the fabric samples were removed from the microtiter plates.
(§10) The number of removed bacteria in the resulting suspension was determined by staining with Syto9 and fluorescence measurement (fluorescence filter with excitation at 485/20 nm and emission at 528/20 nm) or by staining with BacTiterGlo and bioluminescence measurement. Furthermore, it is possible to determine the number of adhered and removed microorganisms by means of protein assay (e.g., BCA assay, Bradford Assay) or optical density proliferation assay.
The relative variables (e.g., fluorescence units (RFU)) concerning the coated and uncoated fabrics were compared, allowing the reduction in adhered bacteria in % to be determined in accordance with the following formula: Reduction in adhered bacteria[%]=[(RFUuc−RFUuc)/RFUuc]*100 where • RFUuc=relative fluorescence units of the removed bacteria of the uncoated substrate • RFUc=relative fluorescence units of the removed bacteria of the coated substrate […]

P. aeruginosa DSMZ 1117 = assay type: cell-based, Pseudomonas aeruginosa; conditions: for Reduction in adhered bacteria [%]: P. aeruginosa, polyester; for Reduction in adhered bacteria [%] P. aeruginosa: polyester fabric, application concentration 0.1 wt %, commercial product applied directly by padding, relative to uncoated fabric
Protocol: as §1, §2, §3, §4
as §5, with “The optical density of the corresponding control solution with sterile isotonic saline solution was subtracted from the optical densities found.” left out
as §6, §7, §8, §9, §10
The relative variables (e.g., fluorescence units (RFU)) concerning the coated and uncoated fabrics were compared, allowing the reduction in adhered bacteria in % to be determined in accordance with the following formula: Reduction in adhered bacteria[%]=[(RFUuc−RFUuc)/RFUuc]*100 where • RFUuc=relative fluorescence units of the removed bacteria of the uncoated substrate • RFUc=relative fluorescence units of the removed bacteria of the coated substrate
The commercial products described in example 1 were applied directly by a padding method to polyester fabric samples.
Bacterial adhesion to the polyester fabric samples was investigated using the microtiter plate Syto9 assay, as described in example 2.

Staphylococcus aureus [1] = experiment: Antimicrobial activity of coated polyester fabric samples as per JIS L 1902; assay type: cell-based; conditions: for Antimicrobial activity[log] Unwashed: 18 hours at 37° C.
Protocol: The procedure here is that the fabric sample was inoculated with a defined amount of a microbial suspension (inoculum). Test specimens with a weight of approximately 0.4 g were investigated in a triplicate determination.
The inoculated fabric sample was incubated in a closed system at 37° C. over a period of 18 hours. Following incubation, the bacteria of a defined amount of a dilution solution were recorded. The difference in the bacterial count of the fabric sample at 0 hours in comparison to the fabric sample after 18 hours served as a basis for evaluation. The antimicrobial activity is reported as a logarithmic or percentage value. Here, a reduction in the microbe count of 0% corresponds to inadequate antimicrobial action, a microbe reduction in the range from 0.1 to less than 90% to an inadequate antibacterial action, and a microbe reduction of greater than 90% to a good antibacterial action.

Staphylococcus aureus [2] = assay type: cell-based; conditions: for Reduction in cell count relative to control [%] S. aureus: coated glass slide vs uncoated glass control K; for Cell count [1/cm^2] S. aureus: glass slide coated from 0.1% strength solution, bacterial suspension 10^9 microbes/ml, 30 measuring windows
Description: (§11) Silane derivatives S1, S3, S4 and S5 as identified above in example 1 were used to produce coatings on glass slides. As a control (comparison sample) K, an uncoated glass slide cleaned with isopropanol was used.
(§12) For the coating of the slides they were immersed for 60 seconds into a 0.1% strength solution of the corresponding silane derivative in ethanol/water as solvent with a water fraction of 5%. The solutions had been adjusted with acetic acid beforehand to a pH in the range from 4 to 5. The wetted slides were subsequently dried at 160° C. for 1 hour.
(§13) The slides wetted with the bacterial suspension were analyzed by microscope to determine the adhering bacteria. […] The fluorescent dye used was DAPI (4′,6-diamidine-2-phenylindole), which binds to DNA and fluoresces under UV excitation. In order to determine the adhesion characteristics, the cell counts per cm^2 were ascertained in 30 measuring windows, and the adhesion pattern was evaluated. Cell attachment was evaluated on an Olympus IX 51 using the Labflow AnalySIS image processing program.
(§14) Bacterial suspensions produced and used were suspensions of test cultures of the strains Staphylococcus aureus and Escherichia coli. The concentration of the bacterial suspension was 10^9 microbes/ml.

Escherichia coli = experiment: Bacterial adhesion to coated glass slides via fluorescence microscopy (DAPI); assay type: cell-based; conditions: for Reduction in cell count relative to control [%] E. coli: coated glass slide vs uncoated glass control K; for Cell count [1/cm^2] E. coli: glass slide coated from 0.1% strength solution, bacterial suspension 10^9 microbes/ml, 30 measuring windows
Description: as §11, §12, §13, §14

[3] = coating concentration 0.001 %, wash pretreatment (A) unwashed
[4] = coating concentration 0.001 %, wash pretreatment (B) washed twice at 30° C. only with water
[5] = coating concentration 0.01 %, wash pretreatment (A) unwashed
[6] = coating concentration 0.01 %, wash pretreatment (B) washed twice at 30° C. only with water
[7] = coating concentration 0.01 %, wash pretreatment (C) washed once at 30° C. EN ISO 6330 method 8A with ECE B detergent
[8] = coating concentration 0.1 %, wash pretreatment (A) unwashed
[9] = coating concentration 0.1 %, wash pretreatment (B) washed twice at 30° C. only with water
[10] = coating concentration 0.1 %, wash pretreatment (C) washed once at 30° C. EN ISO 6330 method 8A with ECE B detergent
[11] = coating concentration 0.001 % based on fabric
[12] = coating concentration 0.01 % based on fabric
[13] = coating concentration 0.1 % based on fabric

**Q.** Which “Reduction in adhered bacteria [%]” value (S. aureus DSMZ 20231; [3]) does the source give for “bis[3-(triethoxysilylpropoxy)-2-hydroxypropoxy)]polyethylene oxide (5-10 EO units) [S2]” here?
**A.** 30%

**Q.** And the “Reduction in adhered bacteria [%]” value (S. aureus DSMZ 20231; [4])?
**A.** 52%

**Q.** And the “Reduction in adhered bacteria [%]” value (S. aureus DSMZ 20231; [5])?
**A.** 71%

**Q.** What about the “Reduction in adhered bacteria [%]” value (S. aureus DSMZ 20231; [6]) of the same compound?
**A.** 31%

**Q.** And the “Reduction in adhered bacteria [%]” value (S. aureus DSMZ 20231; [7])?
**A.** 66%

**Q.** And the “Reduction in adhered bacteria [%]” value (S. aureus DSMZ 20231; [8])?
**A.** 55%

**Q.** And the “Reduction in adhered bacteria [%]” value (S. aureus DSMZ 20231; [9])?
**A.** 48%

**Q.** What about the “Reduction in adhered bacteria [%]” value (S. aureus DSMZ 20231; [10]) of the same compound?
**A.** 49%

**Q.** What about the “Reduction in adhered bacteria [%] S. aureus” value (S. aureus DSMZ 20231) of the same compound?
**A.** 85%

**Q.** What about the “Reduction in adhered bacteria [%]” value (P. aeruginosa DSMZ 1117; [3]) of the same compound?
**A.** 62%

**Q.** And the “Reduction in adhered bacteria [%]” value (P. aeruginosa DSMZ 1117; [4])?
**A.** 87%

**Q.** What about the “Reduction in adhered bacteria [%]” value (P. aeruginosa DSMZ 1117; coating concentration 0.001 %, wash pretreatment (C) washed once at 30° C. EN ISO 6330 method 8A with ECE B detergent) of the same compound?
**A.** 55%

**Q.** And the “Reduction in adhered bacteria [%]” value (P. aeruginosa DSMZ 1117; [5])?
**A.** 79%

**Q.** What about the “Reduction in adhered bacteria [%]” value (P. aeruginosa DSMZ 1117; [6]) of the same compound?
**A.** 36%

**Q.** And the “Reduction in adhered bacteria [%]” value (P. aeruginosa DSMZ 1117; [7])?
**A.** 75%

**Q.** And the “Reduction in adhered bacteria [%]” value (P. aeruginosa DSMZ 1117; [8])?
**A.** 68%

**Q.** What about the “Reduction in adhered bacteria [%]” value (P. aeruginosa DSMZ 1117; [9]) of the same compound?
**A.** 45%

**Q.** What about the “Reduction in adhered bacteria [%]” value (P. aeruginosa DSMZ 1117; [10]) of the same compound?
**A.** 75%

**Q.** And the “Reduction in adhered bacteria [%] P. aeruginosa” value (P. aeruginosa DSMZ 1117)?
**A.** 64%

**Q.** And the “Antimicrobial activity[log] Unwashed” value (Staphylococcus aureus [1]; [11])?
**A.** 0.2 log

**Q.** What about the “Antimicrobial activity[log] Washed once at 30° C., without detergent” value (Staphylococcus aureus [1]; [11]) of the same compound?
**A.** −0.1 log

**Q.** And the “Antimicrobial activity[log] Washed twice with water” value (Staphylococcus aureus [1]; [11])?
**A.** 0.1 log

**Q.** And the “Antimicrobial activity[log] Unwashed” value (Staphylococcus aureus [1]; [12])?
**A.** −0.4 log

**Q.** And the “Antimicrobial activity[log] Washed once at 30° C., without detergent” value (Staphylococcus aureus [1]; [12])?
**A.** −0.6 log

**Q.** What about the “Antimicrobial activity[log] Washed twice with water” value (Staphylococcus aureus [1]; [12]) of the same compound?
**A.** 0.1 log

**Q.** What about the “Antimicrobial activity[log] Unwashed” value (Staphylococcus aureus [1]; [13]) of the same compound?
**A.** −0.2 log

**Q.** What about the “Antimicrobial activity[log] Washed once at 30° C., without detergent” value (Staphylococcus aureus [1]; [13]) of the same compound?
**A.** −0.4 log

**Q.** And the “Antimicrobial activity[log] Washed twice with water” value (Staphylococcus aureus [1]; [13])?
**A.** 0.00 log

**Q.** `CCO[Si](CCCNC(=O)[C@H](O)[C@@H](O)[C@H](O)[C@H](O)CO)(OCC)OCC` [S4, N-(triethoxysilylpropyl)gluconamide] was tested. Which “Reduction in adhered bacteria [%] S. aureus” value (S. aureus DSMZ 20231) did it give?
**A.** 58%

**Q.** And the “Reduction in adhered bacteria [%] P. aeruginosa” value (P. aeruginosa DSMZ 1117)?
**A.** 57%

**Q.** What about the “adhesion pattern on microscopic inspection” value (Staphylococcus aureus [2]; S. aureus on coated glass surface) of the same compound?
**A.** only a few grapelike assemblies of S. aureus

**Q.** What about the “Reduction in cell count relative to control [%] S. aureus” value (Staphylococcus aureus [2]) of the same compound?
**A.** 16% and 17%

**Q.** And the “Cell count [1/cm^2] S. aureus” value (Staphylococcus aureus [2])?
**A.** 383 000 1/cm^2

**Q.** What about the “Reduction in cell count relative to control [%] E. coli” value (Escherichia coli) of the same compound?
**A.** 51%

**Q.** What about the “Cell count [1/cm^2] E. coli” value (Escherichia coli) of the same compound?
**A.** 389 000 1/cm^2

**Q.** What does the source list for “methoxy(polyethyleneoxy)propyltrimethoxysilane (9-12 EO units) [S1]”?
**A.** Reduction in adhered bacteria [%] S. aureus (S. aureus DSMZ 20231): 34%; Reduction in adhered bacteria [%] P. aeruginosa (P. aeruginosa DSMZ 1117): 41%; Reduction in cell count relative to control [%] S. aureus (Staphylococcus aureus [2]): 76%; adhesion of S. aureus to coated glass, assessment in words (Staphylococcus aureus [2]; coated glass slides): Very good results; Cell count [1/cm^2] S. aureus (Staphylococcus aureus [2]): 110 000 1/cm^2; adhesion of bacteria to coated glass, assessment in words (Escherichia coli; both series of tests (S. aureus and E. coli), compared with glass control): very good results; Reduction in cell count relative to control [%] E. coli (Escherichia coli): 63%; Cell count [1/cm^2] E. coli (Escherichia coli): 296 000 1/cm^2
